How the values were obtained:
EW-1 (Ewing's Sarcoma) = assay: Bliss excess, mean over the matrix (fraction); higher = more synergy
Outline: (§1)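 Cell lines grown in DMEM/F12 or RPMI with 10% FBS were plated in 1536-well plates and held 24 hours at 37°C, 5% CO2 before 72 hours of exposure to two-drug dose matrices, with DMSO typically at 0.2%. CellTiter-Glo 2.0 luminescence gave viability, which was converted to inhibition. Vehicle wells were set to 0 and blank wells to 1. Combination Emax is the second-highest inhibition in the matrix, and Bliss excess is the observed combination effect minus the expected EA + EB − EA·EB, where EA and EB are the single-agent effects.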

[1] = tested on: HCC1500 (Breast Carcinoma); assay: as above
Outline: as §1

[2] = tested on: HCC1937 (Breast Carcinoma); assay: as above
Outline: as §1

[3] = tested on: HCC2998 (Colorectal Carcinoma); assay: as above
Outline: as §1

Hey (Ovarian Carcinoma) = assay: as above
Outline: as §1

[4] = tested on: LC-1-sq (Squamous Cell Lung Carcinoma); assay: as above
Outline: as §1

[5] = tested on: NCI-H1092 (Small Cell Lung Carcinoma); assay: as above
Outline: as §1

[6] = tested on: NCI-H1838 (Lung Adenocarcinoma); assay: as above
Outline: as §1

[7] = tested on: NCI-H650 (Lung Adenocarcinoma); assay: as above
Outline: as §1

[8] = tested on: OACM5-1 (Esophageal Adenocarcinoma); assay: as above
Outline: as §1

[9] = tested on: SK-LU-1 (Lung Adenocarcinoma); assay: as above
Outline: as §1

[10] = tested on: Ca-Ski (Cervical Carcinoma); assay: combination Emax (second highest fraction inhibited in the dose matrix, 72 h); higher = more inhibition; extreme values may be limits of the assay
Outline: as §1

[11] = tested on: EFO-21 (Ovarian Carcinoma); assay: as above
Outline: as §1

[12] = tested on: HAL-01 (B-Lymphoblastic Leukemia); assay: as above
Outline: as §1

[13] = tested on: MOLT-4 (T-Lymphoblastic Leukemia); assay: as above
Outline: as §1

[14] = tested on: Mo-T (Other Blood Carcinomas); assay: as above
Outline: as §1

[15] = tested on: NCI-H1355 (Lung Adenocarcinoma); assay: as above
Outline: as §1

SK-N-AS (Neuroblastoma) = assay: as above
Outline: as §1

[16] = tested on: SKN (Other Solid Carcinomas); assay: as above
Outline: as §1

[17] = tested on: SW872 (Other Solid Carcinomas); assay: as above
Outline: as §1
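Throughout, for Bliss excess, mean over the matrix: after 72 h of two-drug dosing.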

Structure (SMILES)	Bliss excess (EW-1 (Ewing's Sarcoma))	Bliss excess [1]	Bliss excess [2]	Bliss excess [3]	Bliss excess (Hey (Ovarian Carcinoma))	Bliss excess [4]	Bliss excess [5]	Bliss excess [6]	Bliss excess [7]	Bliss excess [8]	Bliss excess [9]	combination Emax [10]	combination Emax [11]	combination Emax [12]	combination Emax [13]	combination Emax [14]	combination Emax [15]	combination Emax (SK-N-AS (Neuroblastoma))	combination Emax [16]	combination Emax [17]
CN(CCO)CC[C@H](CSc1ccccc1)Nc1ccc(S(=O)(=O)NC(=O)c2ccc(N3CCC([C@@H](O)c4ccccc4-c4ccc(Cl)cc4)CC3)cc2)cc1S(=O)(=O)C(F)(F)F [AZD4320] + CCN(CCO)CCCOc1ccc2c(Nc3cc(CC(=O)Nc4cccc(F)c4)[nH]n3)ncnc2c1 [AZD2811] (first compound max 1 µM, 7x7, partner max 1 µM)	0.146	0.0758	-0.0513	0.103	-0.0022	0.0294	0.0193	0.0003	-0.0457	0.0473	-0.0232	0.907	0.196	0.835	1	0.768	0.239	0.391	0.613	0.142
COc1cc2ncnc(Nc3ccc(F)c(Cl)c3)c2cc1OCCCN1CCOCC1 [Gefitinib] + CC(C)n1c(=O)n(C)c2cnc3cc(F)c(-c4ccc(OCCCN5CCCCC5)nc4)cc3c21 [AZD1390] (first compound max 10 µM, 7x7, partner max 0.3 µM)	-0.064	-0.0338	-0.108	-0.0541	-0.0573	-0.0754	-0.0528	-0.103	-0.0791	-0.112	-0.0818	0.292	0.198	0.488	0.373	0.178	0.133	0.0247	0.199	0.131
CN(CCO)CC[C@H](CSc1ccccc1)Nc1ccc(S(=O)(=O)NC(=O)c2ccc(N3CCC([C@@H](O)c4ccccc4-c4ccc(Cl)cc4)CC3)cc2)cc1S(=O)(=O)C(F)(F)F [AZD4320] + C1CN(CCC1(C(=O)N[C@@H](CCO)C2=CC=C(C=C2)Cl)N)C3=NC=NC4=C3C=CN4 [Capivasertib] (first compound max 1 µM, 7x7, partner max 3 µM)	-0.0009	-0.0178	-0.0881	-0.0128	-0.0385	-0.02	-0.0476	-0.0392	-0.0252	-0.0272	-0.0558	0.766	0.168	0.761	1	0.697	0.239	0.172	0.401	0.166
C[C@@H](c1ccc2nccn2c1)n1nnc2ncc(-c3cnn(C)c3)nc21 [Savolitinib] + Cc1c2c(nn1C)CSCc1cc(n(C)n1)CSc1cc(c3ccccc3c1)OCCCc1c(C(=O)O)n(C)c3c-2c(Cl)ccc13 [AZD5991] (first compound max 1 µM, 7x7, partner max 1 µM)	-0.0001	-0.001	-0.0386	-0.0463	-0.0321	-0.0163	-0.0875	0.0218	-0.045	-0.0598	-0.0291	0.212	0.163	0.291	0.491	0.129	0.207	0.314	0.219	0.201
Cc1c2c(nn1C)CSCc1cc(n(C)n1)CSc1cc(c3ccccc3c1)OCCCc1c(C(=O)O)n(C)c3c-2c(Cl)ccc13 [AZD5991] + Cn1cnc2c(F)c(Nc3ccc(Br)cc3Cl)c(C(=O)NOCCO)cc21 [Selumetinib] (first compound max 1 µM, 7x7, partner max 3 µM)	-0.0044	0.0093	0.0328	0.0417	-0.0033	0.0393	-0.03	0.003	0.0222	0.0491	-0.0225	0.633	0.36	0.624	0.339	0.296	0.316	0.876		0.288
CN(CCO)CC[C@H](CSc1ccccc1)Nc1ccc(S(=O)(=O)NC(=O)c2ccc(N3CCC([C@@H](O)c4ccccc4-c4ccc(Cl)cc4)CC3)cc2)cc1S(=O)(=O)C(F)(F)F [AZD4320] + C[C@@H]1COCCN1C2=NC(=NC(=C2)C3(CC3)[S@](=N)(=O)C)C4=C5C=CNC5=NC=C4 [AZD6738] (first compound max 1 µM, 7x7, partner max 10 µM)	0.0574	0.0444	-0.0241	-0.0283	-0.0697	0.0261	-0.0167	-0.0445	-0.0234	0.0144	-0.0884	0.773	0.433	1	1	0.937	0.77	0.949	0.663	0.624
C[C@@H](c1ccc2nccn2c1)n1nnc2ncc(-c3cnn(C)c3)nc21 [Savolitinib] + CC1(C)CCC(CN2CCN(c3ccc(C(=O)NS(=O)(=O)c4ccc(NCC5CCOCC5)c([N+](=O)[O-])c4)c(Oc4cnc5[nH]ccc5c4)c3)CC2)=C(c2ccc(Cl)cc2)C1 [Venetoclax] (first compound max 1 µM, 7x7, partner max 1 µM)	-0.0386	-0.008	-0.0884	-0.0866	-0.0651	-0.0408	-0.0916	-0.049	-0.0822	-0.0637	-0.0258	0.174	0.212	0.703	0.476	0.114	0.137	0.12	0.169	0.136
Cc1cc2ncnn2cc1Nc1ncc2c(n1)n(C1CCOCC1)c(=O)n2C [AZD7648] + O=C(c1cc(Cc2n[nH]c(=O)c3ccccc23)ccc1F)N1CCN(C(=O)C2CC2)CC1 [Olaparib] (first compound max 10 µM, 7x7, partner max 10 µM)	-0.0021	-0.0234	-0.0498	-0.023	-0.0088	-0.042	-0.025	-0.0808	-0.0247	-0.0505	-0.066	0.142	0.264	0.472	0.233	0.382	0.297	0.102	0.131	0.11
Cc1nc(Nc2ncc(C(=O)Nc3c(C)cccc3Cl)s2)cc(N2CCN(CCO)CC2)n1 [Dasatinib] + CC(=O)Nc1cccc(-n2c(=O)n(C3CC3)c(=O)c3c(Nc4ccc(I)cc4F)n(C)c(=O)c(C)c32)c1 [Trametinib] (first compound max 2 µM, 7x7, partner max 1 µM)	-0.0586	-0.0599	-0.0262	0.111	0.001	-0.0577	-0.0494	-0.0793	0.121	-0.0912	-0.0889	0.774	0.479	0.526	0.424	0.137	0.482	0.558	0.683	0.566
CN(CCO)CC[C@H](CSc1ccccc1)Nc1ccc(S(=O)(=O)NC(=O)c2ccc(N3CCC([C@@H](O)c4ccccc4-c4ccc(Cl)cc4)CC3)cc2)cc1S(=O)(=O)C(F)(F)F [AZD4320] + Cc1cc2ncnn2cc1Nc1ncc2c(n1)n(C1CCOCC1)c(=O)n2C [AZD7648] (first compound max 1 µM, 7x7, partner max 10 µM)	0.0033	-0.0027	-0.0352	-0.0035	-0.0728	-0.0093	0.005	-0.0291	-0.021	-0.0545	0.0207	0.208	0.224	0.882	0.98	0.578	0.269	0.182	0.15	0.113

From the supplement of paper PMC11061612
